Test results as given in ChEMBL document CHEMBL5244217, “β-Carboline alkaloid monomers and dimers: Occurrence, structural diversity, and biological activities” (Eur J Med Chem, 2018).
≈ marks a conversion by molar mass, not a printed value.

Experiments:
[1] = target: Alpha-glucosidase (Saccharomyces cerevisiae S288c, UniProt P53341+P38158+P07265); experiment: Inhibition of Saccharomyces cerevisiae alpha-glucosidase activity using pNPG as substrate; format: protein assay
[2] = tested on: Human immunodeficiency virus 1; experiment: Antiviral activity against HIV1; format: functional, organism-based
[3] = tested on: Micrococcus luteus; experiment: Antibacterial activity against Sarcina lutea; format: functional
[4] = tested on: Bacillus subtilis; experiment: Antibacterial activity against Bacillus subtilis; format: functional
[5] = tested on: Corynebacterium xerosis; experiment: Antibacterial activity against Corynebacterium xerosis; format: functional
[6] = tested on: Human immunodeficiency virus 1; experiment: Antiviral activity against HIV1 IIIB infected in human C8166 cells assessed as reduction in virus-induced cytopathic effect measured after 3 days by Syncytia assays; format: functional, organism-based; settings: Human immunodeficiency virus 1, IIIB, C8166, 72 h
[7] = tested on: Staphylococcus aureus; experiment: Antimicrobial activity against Staphylococcus aureus; format: functional
[8] = tested on: Candida albicans; experiment: Antimicrobial activity against Candida albicans; format: functional
[9] = tested on: Cryptococcus neoformans; experiment: Antimicrobial activity against Cryptococcus neoformans; format: functional
[10] = tested on: Mycolicibacterium smegmatis; experiment: Antibacterial activity against Mycobacterium smegmatis ATCC 14468; format: functional
[11] = tested on: Staphylococcus aureus; experiment: Antibacterial activity against Staphylococcus aureus EMRSA-15; format: functional
[12] = tested on: Staphylococcus aureus; experiment: Antibacterial activity against Staphylococcus aureus 1199B; format: functional
[13] = tested on: Mycolicibacterium fortuitum; experiment: Antibacterial activity against Mycobacterium fortuitum ATCC 6841; format: functional
[14] = tested on: Staphylococcus aureus; experiment: Antibacterial activity against Staphylococcus aureus XU212; format: functional
[15] = tested on: Mycolicibacterium phlei; experiment: Antibacterial activity against Mycolicibacterium phlei ATCC 11758; format: functional
[16] = tested on: Mycolicibacterium smegmatis; experiment: Antibacterial activity against Mycolicibacterium smegmatis MC2 2700; format: functional
[17] = Selectivity index, ratio of IC50 for cytotoxicity against rat L6 cells to IC50 for Antimalarial activity against Plasmodium falciparum K1 strain; format: toxicity, cell-based; settings: read-out: Selectivity Index
[18] = tested on: Plasmodium falciparum; experiment: Antimalarial activity against Plasmodium falciparum K1 strain; format: functional, organism-based
[19] = tested on: dengue virus type 2; experiment: Antiviral activity against DENV-2 strain New Guinea C infected in Vero cells assessed as reduction in virus yield measured after 48 hrs; format: functional, organism-based
[20] = tested on: HL-60; experiment: Cytotoxicity against human HL-60 cells; format: functional, cell-based
[21] = tested on: KB; experiment: Cytotoxicity against human KB cells; format: functional; settings: read-out: ED50 (the source's name)
[22] = tested on: MDA-MB-231; experiment: Cytotoxicity against human MDA-MB-231 cells; format: functional, cell-based
[23] = tested on: Plasmodium falciparum; experiment: Antimalarial activity against Plasmodium falciparum; format: functional, organism-based
[24] = tested on: Trypanosoma brucei brucei; experiment: Antitrypanosomal activity against Trypanosoma brucei brucei; format: functional, organism-based

`O=C(CO)CCC(=O)c1nc(C(=O)O)cc2c1[nH]c1ccccc12` gave an IC50 [1] of 63.3 µg/mL (≈ 194 µM).

With `O[C@]12C=C(c3nccc4c3[nH]c3ccccc34)[C@@H]3CCN(CCCC/C=C\CC1)C[C@@]31C[C@@H]3/C=C\CCCCN3[C@H]12` [MANZAMINE A] the IC50 [2] was 4.2 µM.

`Oc1cccc2c1[nH]c1c(C3=C[C@@]4(O)CC/C=C\CCCCN5CC[C@@H]3[C@]3(C[C@@H]6/C=C\CCCCN6[C@H]34)C5)nccc12` gave an MIC [3] of 0.91 µg/mL (≈ 1.61 µM).

`O[C@H]1[C@H]2[C@@H]3c4[nH]c5ccccc5c4CCN3CN3CCCC/C=C\CC[C@@]45CN(CCCC/C=C\CC[C@@]1(O)[C@H]34)CC[C@@H]25` gave an MIC [3] of 2.8 µg/mL (≈ 4.79 µM), an MIC [4] of 2.8 µg/mL (≈ 4.79 µM) and an MIC [5] of 5.7 µg/mL (≈ 9.75 µM).

`NC(=O)c1cc2c([nH]c3ccccc32)c(-c2ccc(CO)o2)n1` showed an EC50 [6] of 0.38 µM.

`CSc1c(C2=C(c3c[nH]c4ccc(O)cc34)C(=O)N3c4ccc(O)cc4C4C=C(C(=O)O)N=C2C43)n(C)c[n+]1C` (centres undefined) gave an MIC [7] of 8 µg/mL, an MIC [8] of 8 µg/mL and an MIC [9] of 8 µg/mL.

With `N=C(N)NCCC[C@H]1NCCc2c1[nH]c1cc(Br)ccc21` the MIC [10] was 16 µg/mL (≈ 45.7 µM), the MIC [11] was 64 µg/mL (≈ 183 µM) and the MIC [12] was 16 µg/mL (≈ 45.7 µM). The MIC [13] was 16 µg/mL (≈ 45.7 µM), the MIC [14] was 8 µg/mL (≈ 22.8 µM) and the MIC [15] was 8 µg/mL (≈ 22.8 µM). The MIC [16] was 2 µg/mL (≈ 5.71 µM).

For `Oc1ccc2[nH]c3c(C4=C[C@@]5(O)CC/C=C\CCCCN6CC[C@@H]4[C@@]4(C6)C[C@@]67CCC(CCCN6[C@H]45)O7)nccc3c2c1`, the IC50 [2] was 2.3 µM.

In the case of `O=C(O)c1cc2c([nH]c3ccccc32)c(-c2ccc(CO)o2)n1` [FLAZINE], the IC50 [6] is reported as 2.37 µM.

With `C[n+]1ccc2c(c1)[nH]c1ccc(Cl)cc12` [NOSTOCARBOLINE] the selectivity ratio [17] was 2500 and the IC50 [18] was 0.018 µM.

With `COc1ccc2c3ccnc(C)c3n(C)c2c1` the EC50 [19] was 3.2 µM.

With `COc1ccc2c3c([nH]c2c1)[C@]12CC(C)(C)[C@@]4(C(=O)N1CC3)c1[nH]c3cc(OC)ccc3c1CCN24` the IC50 [20] was 5.8 µM.

In the case of `CC(C)CC(N)c1nccc2c1[nH]c1cc(Br)ccc12` (centres undefined) [EUDISTALBIN A], the EC50 [21] is reported as less than 3.2 µg/mL and the IC50 [22] is reported as 2.1 µM.

With `Oc1ccc2[nH]c3c(C4=C[C@@]5(O)CC/C=C\CCCCN6CC[C@@H]4[C@]4(C[C@@H]7/C=C\CCCCN7[C@H]45)C6)nccc3c2c1` [MANZAMINE Y] the MIC [3] was 0.25 µg/mL (≈ 0.443 µM).

`CSc1c(C2=C(c3c[nH]c4ccc(O)cc34)C(=O)N3c4ccc(O)cc4C4C=CN=C2C43)n(C)c[n+]1C` (centres undefined) gave an MIC [7] of 4 µg/mL, an MIC [8] of 4 µg/mL and an MIC [9] of 4 µg/mL.

With `O=c1ccc2nccc3c4ccccc4n1c23` [CANTHIN-6-ONE] the MIC [10] was 8 µg/mL (≈ 36.3 µM), the MIC [11] was 32 µg/mL (≈ 145 µM) and the MIC [12] was 8 µg/mL (≈ 36.3 µM). It also gave an MIC [13] of 16 µg/mL (≈ 72.7 µM), an MIC [14] of 8 µg/mL (≈ 36.3 µM) and an MIC [15] of 8 µg/mL (≈ 36.3 µM). For the same compound, the MIC [16] was 8 µg/mL (≈ 36.3 µM).

For `O[C@]12C=C(C3c4[nH]c5ccccc5c4CCN3CCc3nccc4c3[nH]c3ccccc34)[C@@H]3CCN(CCCC/C=C\CC1)C[C@@]31C[C@@H]3/C=C\CCCCN3[C@H]12` (some centres undefined), the IC50 [23] was 0.58 µg/mL (≈ 0.776 µM) and the IC50 [24] was 0.27 µg/mL (≈ 0.361 µM).

`Oc1cccc2c3c([nH]c12)C(C1=C[C@@]2(O)CC/C=C\CCCCN4CC[C@@H]1[C@]1(C[C@@H]5/C=C\CCCCN5[C@H]12)C4)=NCC3` showed an MIC [3] of 4 µg/mL (≈ 7.06 µM).
